Experimental data taken from patent US11191757B2, “Combination of pimavanserin and cytochrome P450 modulators” (ACADIA Pharmaceuticals Inc., priority 2016, dated 2021).
“Also recorded” adds a separate entry of the source.

Assays:
[1] = Elimination half-life of circulating metabolite M1 in humans in vivo; parameters: species or system human
[2] = Pharmacokinetics of single-dose pimavanserin alone and in the presence of multiple-dose ketoconazole (strong CYP3A inhibitor) in healthy subjects; details: for exposure to metabolite, mean AUC ratio AUC(metabolite)/AUC(parent): after a single dose of pimavanserin; for metabolite plasma concentrations with ketoconazole co-administration: metabolite in plasma after pimavanserin tartrate 40 mg with ketoconazole 400 mg daily; for metabolite plasma levels after pimavanserin: metabolite in plasma after single dose pimavanserin tartrate 40 mg, 19 subjects
Procedure: (§2) 20 subjects (14 males and 6 females) were enrolled in this study. These subjects were healthy male or female subjects between the ages of 18 and 55 years, and with a body mass index (BMI) between 18 and 30 kg/m^2. Among the 20 subjects, 10 subjects (50%) were black, 9 subjects (45%) were white and 1 subject (5%) was American Indian/Alaska native.
(§3) On Day 1, subjects received a single oral dose of pimavanserin tartrate 40 mg (2×20 mg tablets) under fasting conditions. On Day 15, subjects began taking ketoconazole 400 mg (2×200 mg tablets) orally once daily for 14 days. A single oral dose of pimavanserin tartrate 40 mg was administered under fasting conditions 60 minutes after the fifth ketoconazole dose (on Day 19). Both single doses of pimavanserin tartrate were administered on an empty stomach, following an overnight fast of approximately 10 hours prior to dosing. Subjects continued to fast for 4 hours after administration of pimavanserin tartrate.
(§4) Samples for pimavanserin pharmacokinetic (PK) analysis were collected prior to each pimavanserin dose and at scheduled time points up to 14 days post-dose. More specifically, blood samples for the determination of plasma pimavanserin and four of its metabolites were collected at the following time points in relation to pimavanserin dosing on Day 1 and Day 19: pre-dose (within 30 minutes of dosing), 1, 2, 4, 6, 9, 12, 16, 24, 36, 48, 72, 96, 144, 192, 264, and 336 hours post-dose. The pharmacokinetics of pimavanserin and four metabolites, M1 (N-desmethyl-pimavanserin), M2 (O-desalkyl-pimavanserin), M3 ([ω-1]-hydroxy-pimavanserin), and M4 (ω-hydroxy-pimavanserin), by treatment consisting of pimavanserin alone and pimavanserin with ketoconazole, were assessed using noncompartmental analysis.
(§5) The following parameters were determined for pimavanserin, M1, M2 and M3 (the analytes for which there was a sufficient number of quantifiable post-dose concentrations): the area under the concentration-time curve from 0 to the time of the last measurable concentration (AUC0-t); the area from 0 to infinity (AUC0-inf); the percent of the extrapolated portion of the AUC0-inf (% AUCext); the maximum observed plasma concentration (Cmax); time of maximum plasma concentration (Tmax); apparent first-order terminal elimination rate constant (kel), and apparent first-order terminal elimination half-life (t1/2). Additional PK parameters computed for pimavanserin were oral clearance (CL/F), and apparent volume of distribution (Vz/F). Where feasible, as in the case of pimavanserin, M1, M2 and M3, parent ratios, which were computed as AUC(metabolite)/AUC(parent) ratios based on both AUC0-t and AUC0-inf were also determined.
(§6) A two-sided paired t-test was performed on the natural log-transformed pimavanserin AUC0-t, AUC0-inf, and Cmax at the alpha level of 0.05. The geometric ratio of treatment means (pimavanserin with ketoconazole/pimavanserin alone) and 90% geometric confidence intervals for the ratio of means were calculated for AUC0-t, AUC0-inf, and Cmax.

[3] = Safety and tolerability of single-dose pimavanserin alone and in the presence of ketoconazole in healthy subjects; type: in vivo, human; details: for treatment-related TEAEs considered related to the substance, number (% of the 16 treatment-related TEAEs): 20 healthy subjects, pimavanserin tartrate 40 mg single doses, ketoconazole 400 mg daily for 14 days; for safety and tolerability: healthy adult subjects
Procedure: The subject who was discontinued was not replaced.
Safety data (including adverse events (AEs)), laboratory tests, vital sign measurements, electrocardiograms (ECGs), and physical examination (PE) were reviewed throughout the study for the purpose of safety monitoring. Clinical laboratory assessments were obtained on Day −1, Day 18, and the end of study visit. Vital signs were performed at each study visit, except on Day −1. A 12-lead ECG was performed on Day −1, Day 1, Day 19 and the end of study visit. Other safety measures included physical examination on Days −1, 3, 23, and the end of study visit and any other measures deemed necessary.
All available safety data from subjects receiving at least one dose of study medication were included in the safety analyses. The frequency of AEs was tabulated. Pre-treatment, within study, and end of study, and change from pre-treatment laboratory, vital signs, and ECG parameters were summarized. Shift tables were prepared for laboratory parameters.

CYP3A4 = biological target: T1, CYP3A4 (Homo sapiens, UniProt P08684); assay: Effect of pimavanserin on the pharmacokinetics of midazolam, in vivo probe drug for CYP3A4; details: 34 mg pimavanserin for up to 38 days, humans
T1 construct: from tissue; host or cells: human subjects in vivo (endogenous hepatic/intestinal enzyme)
Procedure: In this study, the pharmacokinetics of midazolam, a sensitive in vivo probe drug for CYP3A4 and an accepted probe drug for CYP3A4, were evaluated in the presence of pimavanserin in humans. […] No dose adjustment is therefore required for other CYP3A4 substrates when coadministered with pimavanserin.

[4] = biological target: cytochrome P450 (CYP) 3A4 (Homo sapiens, UniProt P08684); assay: In vitro studies of the enzymes forming the primary metabolites of pimavanserin; type: in vitro ADME
Procedure: (§1) A major metabolite formed in vitro by human liver microsomes, M1 (N-desmethyl-pimavanserin), was identified as a significant circulating metabolite in humans in vivo.
An in vitro study was performed to analyze the role of a CYP3A4 inhibitor in pimavanserin metabolism.

CYP2J2 = biological target: T2, CYP2J2 (Homo sapiens, UniProt P51589); assay: as above; type: in vitro ADME
T2 sequence (P51589 1-502): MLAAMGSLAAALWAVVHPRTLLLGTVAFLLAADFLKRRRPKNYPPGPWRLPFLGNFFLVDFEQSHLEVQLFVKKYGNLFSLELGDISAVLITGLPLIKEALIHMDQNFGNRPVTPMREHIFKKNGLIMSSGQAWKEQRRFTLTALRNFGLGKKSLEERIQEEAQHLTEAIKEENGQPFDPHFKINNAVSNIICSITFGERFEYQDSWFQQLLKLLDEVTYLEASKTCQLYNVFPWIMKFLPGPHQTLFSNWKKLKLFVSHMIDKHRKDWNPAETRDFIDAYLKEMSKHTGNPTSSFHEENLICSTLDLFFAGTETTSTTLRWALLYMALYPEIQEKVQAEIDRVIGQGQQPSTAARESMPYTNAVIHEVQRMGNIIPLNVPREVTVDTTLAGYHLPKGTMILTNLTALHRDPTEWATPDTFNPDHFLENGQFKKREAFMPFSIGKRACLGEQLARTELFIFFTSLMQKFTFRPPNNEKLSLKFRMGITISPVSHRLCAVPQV
Description: as §1

[5] = both, human, in vivo
Procedure: as §2, §3, §4, §5, §6

clinical = details: both, human, in vivo, po, 40 mg
Procedure: as §2, §3, §4, §5, §6

Chain of cytochrome P450 (CYP) 3A4 (P08684 whole entry): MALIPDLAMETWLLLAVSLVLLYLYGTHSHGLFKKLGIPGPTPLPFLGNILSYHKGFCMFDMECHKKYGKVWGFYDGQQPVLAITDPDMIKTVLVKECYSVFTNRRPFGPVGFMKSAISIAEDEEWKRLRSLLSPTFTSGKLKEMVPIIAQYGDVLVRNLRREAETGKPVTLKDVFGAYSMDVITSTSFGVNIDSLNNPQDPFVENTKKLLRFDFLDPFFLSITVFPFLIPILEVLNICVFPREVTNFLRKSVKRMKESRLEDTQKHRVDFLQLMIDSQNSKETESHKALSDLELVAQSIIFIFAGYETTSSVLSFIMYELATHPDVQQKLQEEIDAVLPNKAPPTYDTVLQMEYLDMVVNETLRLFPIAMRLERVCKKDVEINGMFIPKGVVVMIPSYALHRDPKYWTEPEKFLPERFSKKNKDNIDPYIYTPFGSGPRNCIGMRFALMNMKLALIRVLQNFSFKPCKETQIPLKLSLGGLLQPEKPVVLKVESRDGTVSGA
T1 sequence (P08684 whole entry): as above

CC(C)COc1ccc(CNC(=O)N(Cc2ccc(F)cc2)C2CCNCC2)cc1 [M1, N-desmethyl-pimavanserin]
elimination half-life [1]: about 65 hours | exposure to metabolite, mean AUC ratio AUC(metabolite)/AUC(parent) [2]: 1.47 | net increase in mean AUC0-t of metabolite with ketoconazole co-administration relative to pimavanserin alone ([2]; metabolite in plasma after pimavanserin tartrate 40 mg, ketoconazole 400 mg daily): 26%

CN1CCC(N(Cc2ccc(F)cc2)C(=O)NCc2ccc(O)cc2)CC1 [M2, O-desalkyl-pimavanserin]
exposure to metabolite, mean AUC ratio AUC(metabolite)/AUC(parent) [2]: 0.0365 | metabolite plasma concentrations with ketoconazole co-administration [2]: decreased plasma concentrations; also recorded: reduced

CN1CCC(N(Cc2ccc(F)cc2)C(=O)NCc2ccc(OCC(C)(C)O)cc2)CC1 [M3, [ω-1]-hydroxy-pimavanserin]
metabolite plasma concentrations with ketoconazole co-administration [2]: not detectable in any subjects; also recorded: reduced | metabolite plasma levels after pimavanserin [2]: Only 5 of the 19 subjects had a few measurable plasma levels; also recorded: Low levels

CC(CO)COc1ccc(CNC(=O)N(Cc2ccc(F)cc2)C2CCN(C)CC2)cc1 (stereo not shown) [M4, ω-hydroxy-pimavanserin]
metabolite plasma levels after pimavanserin [2]: undetectable; also recorded: no detectable concentrations

CC(C)COc1ccc(CNC(=O)N(Cc2ccc(F)cc2)C2CCN(C)CC2)cc1 [Pimavanserin, N-(1-methylpiperidin-4-yl)-N-(4-fluorophenylmethyl)-N′-(4-(2-methylpropyloxy)phenylmethyl)carbamide]
treatment-related TEAEs considered related to the substance, number (% of the 16 treatment-related TEAEs) [3]: 8 (50%) | changes in mean clinical laboratory, vital signs, 12-lead ECG or physical examination findings ([3]; following pimavanserin alone or pimavanserin with ketoconazole): No trends or clinically relevant changes | safety and tolerability ([3]; pimavanserin administered alone): safe and generally well tolerated | safety and tolerability ([3]; pimavanserin administered with ketoconazole): safe and generally well tolerated | deaths or serious adverse events during the study ([3]; pimavanserin alone and with ketoconazole, 20 subjects): No deaths or serious adverse events | effect on midazolam exposure (induction or inhibition of CYP3A4) (CYP3A4): no immediate or delayed effect | role of enzyme in formation of the primary metabolites [4]: formed predominantly by the cytochrome P450 (CYP) 3A4 enzymes | role of enzyme in formation of the primary metabolites (CYP2J2): minor role | ratio of the geometric means, pimavanserin AUC0-inf [5]: approximately 3 | ratio of the geometric means, pimavanserin AUC0-t [5]: approximately 3 | AUC(0-inf) (clinical): 1260 ± 464 ng·h/mL | AUC(0-t) (clinical): 1220 ± 433 ng·h/mL | Cmax (clinical): 17.1 ± 3.8 ng/mL

CC(=O)N1CCN(c2ccc(OCC3COC(Cn4ccnc4)(c4ccc(Cl)cc4Cl)O3)cc2)CC1 (stereo not shown) [ketoconazole, reference compound]
treatment-related TEAEs considered related to the substance, number (% of the 16 treatment-related TEAEs) [3]: 12 (75%)
